Tested on: RintRC_3892
Settings: read-out: K0.5; 20 mM TES-KOH pH 8, 30-33 mM NaCl (Na+-dependent), 30°C, light; labelled compound; n = 5; actual K0.5 might be somewhat higher because of non-labelled bicarbonate

Question: How did the Km turn out when `O=C(O)O` [bicarbonate] was run?
Answer: ~464 µM

Reference: PMC12596568, “Retention of a SulP-family bicarbonate transporter in a periplasmic N2-fixing cyanobacterial endosymbiont of an open ocean diatom” (The ISME Journal, 2025)
